Key:
Fischer-Ratten = experiment: Rat tail skin transplantation, Lewis donor to Fischer recipient: graft survival time; format: in vivo; settings: d0-9, mean ± s of 5 animals
From the text: (§1) In einem Experimentalansatz wurden Schwanzhautstückchen von Lewis Ratten mit einer Größe von etwa 0.5 x 1.0 cm auf den Schwanz von Fischer Ratten verpflanzt. In einem weiteren Modell wurde die Schwanzhaut von DA Ratten auf Lewis Ratten transplantiert. Die transplantierten Hautstücke werden vom Immunsystem der Empfängertiere als fremd erkannt und abgestoßen. Wie in Tabelle I zu sehen ist, betrug die Transplantüberlebenszeit im Lewis-Fischer-Rattenmodell in den Kontrollgruppen, die nur mit dem Lösungsmittel behandelt wurden zwischen 16 und 18 Tagen. Die Verbindung der Formel I mit R₁ = H wurde in verschiedenen Konzentrationen (1, 5, 10, 20 und 40 mg/kg Körpergewicht pro Injektion) an 10 aufeinanderfolgenden Tagen, beginnend mit dem Tag der Transplantation, entweder oral oder intraperitoneal verabreicht. Hierbei zeigt sich, daß sich durch verschiedene Konzentrationen der Substanz die Überlebenszeiten der Transplantate dosisabhängig von 15.8 ± 2.4 auf 26.8 ± 1.3 bzw. 18.4 ± 1.5 auf 28.4 ± 1.1 erhöhen ließen, wobei 10 mg/kg eine optimal wirksame Dosis zu sein scheinen.

Lewis Ratten = experiment: Rat tail skin transplantation, DA donor to Lewis recipient: graft survival time; format: in vivo; settings: d0-9, mean ± s of 5 animals, * p 0.001
From the text: as §1
Auch im anderen Transplantationsmodell mit DA Ratten (Spender) und Lewis Ratten (Empfänger) kommt es zu einer Verlängerung der Transplantatüberlebenszeiten durch die Gabe von Homopiperazinen. Hier stoßen die nur mit dem Lösungsmittel behandelten Kontrolltiere das Transplantat ca. am Tag 12 ab. Durch die Behandlung (p.o. oder i.p. […]

CC(C)(C)c1cc(C(=O)N2CCCNCC2)cc(C(C)(C)C)c1O [Verbindung der Formel I mit R¹ = H]
Tage bis zur Abstoßung (x ± s) (Fischer-Ratten; 1 mg/kg, 10xip): (22.8 ± 2.2) Tage
Tage bis zur Abstoßung (x ± s) (Fischer-Ratten; 1 mg/kg, 10xpo): (21.6 ± 1.3) Tage
Tage bis zur Abstoßung (x ± s) (Fischer-Ratten; 5 mg/kg, 10xip): (25.0 ± 2.6) Tage
Tage bis zur Abstoßung (x ± s) (Fischer-Ratten; 5 mg/kg, 10xpo): (25.2 ± 0.8) Tage
Tage bis zur Abstoßung (x ± s) (Fischer-Ratten; 10 mg/kg, 10xip): (26.8 ± 1.3) Tage
Tage bis zur Abstoßung (x ± s) (Fischer-Ratten; 10 mg/kg, 10xip, listed as Verbindung der Formel I mit R₁ = H): 26.8 ± 1.3 Tage
Tage bis zur Abstoßung (x ± s) (Fischer-Ratten; 10 mg/kg, 10xpo): (28.4 ± 1.1) Tage
Tage bis zur Abstoßung (x ± s) (Fischer-Ratten; 10 mg/kg, 10xpo, listed as Verbindung der Formel I mit R₁ = H): 28.4 ± 1.1 Tage
Tage bis zur Abstoßung (x ± s) (Fischer-Ratten; 20 mg/kg, 10xip): (25.2 ± 1.6) Tage
Tage bis zur Abstoßung (x ± s) (Fischer-Ratten; 20 mg/kg, 10xpo): (26.8 ± 0.8) Tage
Tage bis zur Abstoßung (x ± s) (Fischer-Ratten; 40 mg/kg, 10xip): (22.4 ± 2.4) Tage
Tage bis zur Abstoßung (x ± s) (Fischer-Ratten; 40 mg/kg, 10xpo): (24.6 ± 2.0) Tage
Tage bis zur Abstoßung (x ± s) (Lewis Ratten; 5 mg/kg, 5xip): (16.0 ± 1.2)* Tage
Tage bis zur Abstoßung (x ± s) (Lewis Ratten; 10 mg/kg, 5xip): (16.6 ± 1.8)* Tage
Tage bis zur Abstoßung (x ± s) (Lewis Ratten; 10 mg/kg, 10xpo): (16.6 ± 0.6)* Tage
Tage bis zur Abstoßung (x ± s) (Lewis Ratten; 25 mg/kg, 5xip): (17.8 ± 0.8)* Tage
Tage bis zur Abstoßung (x ± s) (Lewis Ratten; 25 mg/kg, 10xpo): (17.4 ± 0.6)* Tage
Tage bis zur Abstoßung (x ± s) (Lewis Ratten; 50 mg/kg, 5xip): (19.6 ± 1.8)* Tage
Tage bis zur Abstoßung (x ± s) (Lewis Ratten; 50 mg/kg, 10xpo): (18.6 ± 1.1)* Tage

Source: patent EP0363836A2, “Use of homopiperazines in the preparation of a medicament for preventing or treating organ rejection reactions” (BEHRINGWERKE Aktiengesellschaft, priority 1988, dated 1990)
